In paper PMC9114674, “Synthesis of New 5′-Norcarbocyclic Aza/Deaza Purine Fleximers - Noncompetitive Inhibitors of E.coli Purine Nucleoside Phosphorylase” (Frontiers in Chemistry, 2022):

T1: E. coli purine nucleoside phosphorylase (PNP) (Escherichia coli, UniProt P0ABP8)
T1 construct: gene deoD
T1 sequence (P0ABP8 2-239): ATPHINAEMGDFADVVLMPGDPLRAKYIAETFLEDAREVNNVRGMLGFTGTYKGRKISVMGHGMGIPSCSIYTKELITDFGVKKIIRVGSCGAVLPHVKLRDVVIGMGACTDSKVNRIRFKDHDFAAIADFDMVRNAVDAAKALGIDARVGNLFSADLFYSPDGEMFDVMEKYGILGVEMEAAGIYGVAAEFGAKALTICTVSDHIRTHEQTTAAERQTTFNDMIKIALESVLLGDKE


Assays:
[1] = target: T1, E. coli purine nucleoside phosphorylase (PNP); assay: HPLC inosine phosphorolysis assay with recombinant enzyme, non-competitive inhibition kinetics; type: biochemical
[2] = substrate: OC[C@H]1O[C@@H](n2cnc3c(O)ncnc32)[C@H](O)[C@@H]1O; assay: purified protein; type: biochemical, Escherichia coli; conditions: phosphate active site

Molecule | Ki [1] | Km [2] | kcat [2]
Nc1ccncc1-c1cnn([C@@H]2C[C@H](O)[C@@H](O)[C@H]2O)c1 [compound 1, 1-(2′,3′,4′-Trihydroxycyclopent-1′-yl)-4-(4-aminopyridin-3-yl)pyrazole] | 17 ± 4 mM |  | 
Nc1ncccc1-c1cnn([C@@H]2C[C@H](O)[C@@H](O)[C@H]2O)c1 [compound 2, 1-(2′,3′,4′-Trihydroxycyclopent-1′-yl)-4-(2-aminopyridin-3-yl)pyrazole] | 14 ± 1 mM |  | 
Nc1ncncc1-c1cnn([C@@H]2C[C@H](O)[C@@H](O)[C@H]2O)c1 [compound 3, 1-(2′,3′,4′-Trihydroxycyclopent-1′-yl)-4-(4-aminopyrimidin-3-yl)pyrazole] | 24 ± 3 mM |  | 
E. coli purine nucleoside phosphorylase (PNP) (Escherichia coli K-12) (protein) ATPHINAEMGDFADVVLMPGDPLRAKYIAETFLEDAREVNNVRGMLGFTGTYKGRKISVMGHGMGIPSCSIYTKELITDFGVKKIIRVGSCGAVLPHVKLRDVVIGMGACTDSKVNRIRFKDHDFAAIADFDMVRNAVDAAKALGIDARVGNLFSADLFYSPDGEMFDVMEKYGILGVEMEAAGIYGVAAEFGAKALTICTVSDHIRTHEQTTAAERQTTFNDMIKIALESVLLGDKE |  | 130 ± 10 µM | 900 ± 60 s⁻¹
